Active and inactive are the calls of the source. No cut-off for these calls is given here.
Experiments:
[1] = molecular target: Thioredoxin reductase 2, mitochondrial (Rattus norvegicus, UniProt Q9Z0J5); assay: Inhibition of rat liver mitochondrial TrxR2 by spectrophotometry
[2] = molecular target: T1, Thioredoxin reductase 1, cytoplasmic (Rattus norvegicus, UniProt O89049); assay: Inhibition of rat liver cytosolic TrxR1 by spectrophotometry
T1 sequence (O89049 whole entry): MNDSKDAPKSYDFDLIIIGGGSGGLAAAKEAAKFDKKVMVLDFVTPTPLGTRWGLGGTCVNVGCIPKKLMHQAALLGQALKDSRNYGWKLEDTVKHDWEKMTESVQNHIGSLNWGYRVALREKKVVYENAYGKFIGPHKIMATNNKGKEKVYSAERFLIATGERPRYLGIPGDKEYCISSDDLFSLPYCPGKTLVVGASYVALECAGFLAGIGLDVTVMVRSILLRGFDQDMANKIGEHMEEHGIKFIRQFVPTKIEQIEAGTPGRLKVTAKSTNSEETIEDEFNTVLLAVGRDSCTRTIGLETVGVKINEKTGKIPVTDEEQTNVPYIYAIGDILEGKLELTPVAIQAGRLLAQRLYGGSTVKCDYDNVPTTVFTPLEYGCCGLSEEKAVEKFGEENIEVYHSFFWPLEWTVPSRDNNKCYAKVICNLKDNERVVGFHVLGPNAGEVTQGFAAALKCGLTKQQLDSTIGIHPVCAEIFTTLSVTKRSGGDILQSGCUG

[3] = molecular target: Thioredoxin reductase 2, mitochondrial (Rattus norvegicus) (UniProt Q9Z0J5); assay: Inhibition of rat liver mitochondrial TrxR2 at 100 uM by spectrophotometry in presence of 0.25 mM NADPH
[4] = molecular target: T2, Thioredoxin reductase 1, cytoplasmic (Rattus norvegicus) (UniProt O89049); assay: Inhibition of rat liver cytosolic TrxR1 at 100 uM by spectrophotometry in presence of 0.25 mM NADPH
T2 sequence (whole entry): T1 sequence (O89049 whole entry)

[5] = molecular target: T2, Thioredoxin reductase 1, cytoplasmic (Rattus norvegicus); assay: Inhibition of rat liver cytosolic TrxR1 at 20 uM after 2 mins by spectrophotometry
[6] = molecular target: T2, Thioredoxin reductase 1, cytoplasmic (Rattus norvegicus); assay: Inhibition of rat liver cytosolic TrxR1 at 20 uM after 1 hr by spectrophotometry
Glutathione reductase = molecular target: T3, Glutathione reductase (Saccharomyces cerevisiae S288c, UniProt P41921); assay: Inhibition of yeast glutathione reductase by spectrophotometry
T3 sequence (P41921 whole entry): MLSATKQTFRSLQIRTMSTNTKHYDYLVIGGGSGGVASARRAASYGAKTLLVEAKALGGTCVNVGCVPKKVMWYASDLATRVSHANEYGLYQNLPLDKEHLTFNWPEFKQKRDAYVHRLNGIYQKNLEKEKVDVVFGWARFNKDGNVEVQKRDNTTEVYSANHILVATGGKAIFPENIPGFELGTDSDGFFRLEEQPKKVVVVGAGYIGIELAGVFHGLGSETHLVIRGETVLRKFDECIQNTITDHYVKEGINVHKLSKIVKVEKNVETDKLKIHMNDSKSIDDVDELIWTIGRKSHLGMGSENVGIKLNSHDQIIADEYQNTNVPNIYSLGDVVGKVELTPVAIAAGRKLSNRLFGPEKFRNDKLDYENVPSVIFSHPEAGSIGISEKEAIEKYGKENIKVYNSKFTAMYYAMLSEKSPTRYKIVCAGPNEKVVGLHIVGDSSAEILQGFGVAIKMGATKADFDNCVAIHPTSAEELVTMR

[7] = molecular target: T1, Thioredoxin reductase 1, cytoplasmic; assay: Mixed-type inhibition of rat liver cytosolic TrxR1 at protein-substrate complex by Lineweaver-Burk plot analysis
[8] = molecular target: T2, Thioredoxin reductase 1, cytoplasmic (Rattus norvegicus); assay: Inhibition of rat liver cytosolic TrxR1 at 5 uM after 2 mins by spectrophotometry
[9] = molecular target: T2, Thioredoxin reductase 1, cytoplasmic (Rattus norvegicus); assay: Inhibition of rat liver cytosolic TrxR1 at 50 to 100 uM by spectrophotometry in presence of 0.025 mM NADPH
[10] = molecular target: T1, Thioredoxin reductase 1, cytoplasmic; assay: Mixed-type inhibition of rat liver cytosolic TrxR1 by Lineweaver-Burk plot analysis

Thioredoxin reductase 2, mitochondrial, sequence (Q9Z0J5 whole entry): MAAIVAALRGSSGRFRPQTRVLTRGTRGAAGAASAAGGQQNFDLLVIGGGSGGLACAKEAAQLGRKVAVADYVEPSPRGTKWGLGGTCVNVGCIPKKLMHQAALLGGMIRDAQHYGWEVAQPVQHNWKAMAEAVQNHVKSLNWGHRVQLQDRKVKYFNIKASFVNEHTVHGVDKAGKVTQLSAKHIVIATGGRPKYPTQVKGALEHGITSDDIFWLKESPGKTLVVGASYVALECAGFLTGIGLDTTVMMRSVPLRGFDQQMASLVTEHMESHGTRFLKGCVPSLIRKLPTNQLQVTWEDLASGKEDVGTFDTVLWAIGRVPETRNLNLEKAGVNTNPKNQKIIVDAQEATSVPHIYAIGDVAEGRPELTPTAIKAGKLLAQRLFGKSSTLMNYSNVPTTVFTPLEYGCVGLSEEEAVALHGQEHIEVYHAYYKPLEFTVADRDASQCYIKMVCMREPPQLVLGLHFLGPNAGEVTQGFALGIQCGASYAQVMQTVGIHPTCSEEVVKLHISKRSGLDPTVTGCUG
Thioredoxin reductase 2, mitochondrial (Rattus norvegicus), sequence (Q9Z0J5 whole entry): as above

Structure (SMILES)	IC50 ([1]; read-out: IC50) [µM]	IC50 ([2]; read-out: IC50) [µM]	also measured
Cc1cc(O)c2c(=O)c3c(O)cc(O)c4c5c(O)cc(O)c6c(=O)c7c(O)cc(C)c8c1c2c(c34)c(c78)c65 [HYPERICIN]	49	198	IC50 ([1]; read-out: pIC50 (converted)): 43.2 µM; IC50 ([2]; read-out: pIC50 (converted)): 158 µM; inhibition [3]: inactive; inhibition [4]: inactive; inhibition [5]: 20%; inhibition [6]: 60%; IC50 (Glutathione reductase): 3670 nM
O=C1c2cccc(O)c2C(=O)c2c(O)cc(CO)cc21 [ALOE-EMODIN]	> 200	180	–
Cc1cc(O)c2c(c1)C(=O)c1cc(O[C@@H]3O[C@@H](C)[C@H](O)[C@@H](O)[C@H]3O)cc(O)c1C2=O [FRANGULIN A]	> 200	> 200	–
Cc1cc(O)c2c(c1)C(=O)c1c(c(O)cc(O)c1-c1c(O[C@@H]3O[C@H](CO)[C@@H](O)[C@H](O)[C@H]3O)cc(O)c3c1C(=O)c1cc(C)cc(O)c1C3=O)C2=O [SKYRIN GLUCOSIDE]	> 200	> 200	–
O=C(O)c1cc(O)c2c(c1)C([C@H]1c3cc(C(=O)O)cc(O)c3C(=O)c3c(O[C@@H]4O[C@H](CO)[C@@H](O)[C@H](O)[C@H]4O)cccc31)c1cccc(O[C@@H]3O[C@H](CO)[C@@H](O)[C@H](O)[C@H]3O)c1C2=O (some centres not stated) [SENNOSIDE A,B]	> 200	> 200	–
Cc1cc(O)c2c(c1)C(=O)c1cccc(O)c1C2=O [CHRYSOPHANOL]	181	194	–
COc1cc(O)c2c(c1)C(=O)c1cc(C)cc(O)c1C2=O [PHYSCION]	132	185	–
O=C(O)c1cc(O)c2c(c1)C(=O)c1cccc(O)c1C2=O [RHEIN]	123	84	–
O=C1c2cccc(O)c2C(=O)c2c(O)cccc21 [DANTHRON]	> 200	> 200	–
Cc1cc(O)c2c(=O)c3c(O)cc(O)c4c5c(O)cc(O)c6c(=O)c7c(O)cc(CO)c8c1c2c(c34)c(c65)c78 [PSEUDOHYPERICIN]	7.9	4.6	Ki [7]: 8.1 µM; IC50 ([1]; read-out: pIC50 (converted)): 7.45 µM; inhibition [8]: 50%; IC50 ([2]; read-out: pIC50 (converted)): 4.41 µM; inhibition [3]: Active; inhibition [9]: Active; inhibition [4]: Active; Ki [10]: 1900 nM; IC50 (Glutathione reductase): 2200 nM
O=C1c2ccccc2C(=O)c2c(O)ccc(O)c21 [QUINIZARIN]	> 200	> 200	–
O=C1c2c(O)cccc2C([C@@H]2O[C@H](CO)[C@@H](O)[C@H](O)[C@H]2O)c2cc(CO)cc(O)c21 (some centres not stated) [ALOIN]	> 200	> 200	–
O=C1c2ccccc2Cc2ccccc21 [ANTHRONE]	> 200	> 200	–

— ChEMBL document CHEMBL1641523, “Hypericins and thioredoxin reductase: Biochemical and docking studies disclose the molecular basis for effective inhibition by naphthodianthrones” (Bioorg Med Chem, 2011)
